Results from PMC4193892, “3-O-Galloylated Procyanidins from Rumex acetosa L. Inhibit the Attachment of Influenza A Virus” (PLoS ONE, 2014).
Like-named read-outs stand apart in the source and are kept apart here.

Legend:
MDCK II cells = assay: cells; settings: Canis lupus familiaris, 48 h, read-out: cell vitality
[1] = test system: IAV(H1N1)pdm09 isolate I1; assay: microbe, parasite or virus in culture; type: cell-based, influenza A virus; settings: for inhibition at 2 µM / inhibition at 20 µM / inhibition at 200 µM: H1N1, 48 h, read-out: anti-IAV activity
IAV neuraminidase = settings: cited from earlier work
[2] = test system: recombinant IAV laboratory strain A/Puerto Rico/8/34-NS116-GFP; settings: cited from earlier work
IAV(H1N1)pdm09 = test system: IAV(H1N1)pdm09; parameters: method as in PMID 24498245; settings: preincubation of particles for 2 h with 50 µg/mL (265 µM); A549 cells; cited from earlier work
IAV(H1N1)pdm09 I1 = type: cell-based, influenza A virus
chicken erythrocytes = assay: Direct agglutination of erythrocytes in the absence of IAV; type: cell-based; settings: minimal concentration
Description: Twofold serial dilutions (25 µL) of test compounds in PBS and 4 hemagglutinating units (HU) of IAV (25 µl) were mixed carefully in 96-well plates with U-shaped bottom (Thermo Fisher Scientific Nunc, Schwerte, Germany). Plates were shaken for 5 min. and incubated for 25 min. at room temperature (RT). 50 µL of a 1.5% suspension of newborn chicken erythrocytes (RBC) in PBS (Labor Dr. Merk & Kollegen, Ochsenhausen, Germany) were added, and plates shaken again. Assays were read following a 2 h incubation period at RT, and the minimum inhibitory concentration (MIC), defined as the highest test compound dilution showing complete inhibition of the agglutination of erythrocytes, was determined. In every assay, a test compound control (compound plus RBC without addition of IAV), and erythrocyte controls (A: IAV plus RBC, without addition of test compound; B: RBC, without addition of test compound or IAV) were included.

Row | Compound | viability at 2 µM (MDCK II cells) [%] | viability at 20 µM (MDCK II cells) [%] | viability at 200 µM (MDCK II cells) [%] | IC50 [1] | IC50 ([1]; Influenza A virus, H1N1) [µM] | inhibition at 2 µM ([1]; Influenza A virus) [%] | inhibition at 20 µM ([1]; Influenza A virus) [%] | inhibition at 200 µM ([1]; Influenza A virus) [%] | CC50 at 48 h (in vitro) [µM] | CC50 at 48 h (in vitro; dog) [µM] | IC50 (IAV neuraminidase) [µM] | EC50 [2] [µM] | effect on virus replication (IAV(H1N1)pdm09) | MIC (IAV(H1N1)pdm09 I1) | direct agglutination (chicken erythrocytes) [µM]
1 | O=C(OC[C@H]1O[C@@H](OC(=O)c2cc(O)c(O)c(O)c2)[C@H](OC(=O)c2cc(O)c(O)c(O)c2)[C@@H](OC(=O)c2cc(O)c(O)c(O)c2)[C@@H]1OC(=O)c1cc(O)c(O)c(O)c1)c1cc(O)c(O)c(O)c1 [compound 12, 1,2,3,4,6-penta-O-galloyl-β-D-glucose, reference compound] | 91 ± 7 | 57 ± 14 | 37 ± 3 | ≤ 22 µM | 22 | 3 ± 3 | 46 ± 9 | 35 ± 1 | 83 |  |  |  |  |  | 
2 | O=c1oc2c(O)c(O)cc3c(=O)oc4c(O)c(O)cc1c4c23 [compound 15, ellagic acid, reference compound] | 106 ± 1 | 110 ± 3 | 108 ± 2 |  | > 200 | 0 | 1 ± 1 | 4 ± 1 | > 200 |  |  |  |  |  | 
3 | Oc1cccc(O)c1O [compound 18, pyrogallol, reference compound] | 98 ± 4 | 96 ± 1 | 43 ± 1 |  | ≤ 241 | 0 | 7 ± 3 | 42 ± 1 |  | 176 |  |  |  |  | 
4 | O=C(/C=C/c1ccc(O)c(O)c1)O[C@H](Cc1ccc(O)c(O)c1)C(=O)O [compound 16, rosmarinic acid, reference compound] | 102 ± 1 | 103 ± 1 | 102 ± 1 |  | > 200 | 0 | 0 | 1 ± 1 | > 200 |  |  |  |  |  | 
5 | Oc1cc(O)c2c(c1)O[C@H](c1ccc(O)c(O)c1)[C@H](O)C2 [compound 2, (−)-epicatechin] | 101 ± 2 | 104 ± 4 | 124 ± 20 |  | > 200 | 0 | 0 | 1 ± 1 | > 200 |  |  |  |  |  | 
6 | Oc1cc(O)c2c(c1)O[C@H](c1ccc(O)c(O)c1)[C@H](O)[C@H]2c1c(O)cc(O)c2c1O[C@H](c1ccc(O)c(O)c1)[C@H](O)C2 [compound 7, epicatechin-(4β→8)-epicatechin] | 107 ± 6 | 108 ± 9 | 117 ± 8 |  | > 200 | 0 | 0 | 1 ± 1 |  | > 200 |  |  |  |  | 
7 | Oc1cc(O)c2c(c1)O[C@H](c1cc(O)c(O)c(O)c1)[C@H](O)C2 [compound 4, epigallocatechin] | 101 ± 4 | 106 ± 1 | 86 ± 17 |  | > 200 | 0 | 0 | 26 ± 22 | > 200 |  |  |  |  |  | 
8 | Oc1cc(O)c2c(c1)O[C@H](c1ccc(O)c(O)c1)[C@@H](O)C2 [compound 1, (+)-catechin monohydrate] | 105 ± 3 | 102 ± 5 | 119 ± 9 |  | > 200 | 0 | 0 | 0 | > 200 |  |  |  |  |  | 
9 | O=C(O[C@@H]1O[C@@H]2COC(=O)c3cc(O)c(O)c(O)c3-c3c(cc(O)c(O)c3O)C(=O)O[C@H]([C@H]1O)[C@@H]2O)c1cc(O)c(O)c(O)c1 [compound 14, corilagin, reference compound] | 101 ± 1 | 103 ± 1 | 8 ± 1 | uncalc. ^3 |  | 0 | 1 | 3 ± 2 |  | 120 |  |  |  |  | 
10 | Oc1cc(O)c2c(c1)O[C@H](c1ccc(O)c(O)c1)[C@H](O)[C@H]2c1c(O)cc(O)c2c1O[C@H](c1ccc(O)c(O)c1)[C@H](O)[C@H]2c1c(O)cc(O)c2c1O[C@H](c1ccc(O)c(O)c1)[C@H](O)C2 [compound 10, epicatechin-(4β→8)-epicatechin-(4β→8)-epicatechin] | 104 ± 2 | 99 ± 4 | 122 ± 6 |  | 123 | 0 | 0 | 87 ± 5 |  | > 200 |  |  |  |  | 
11 | O=C(O)c1cc(O)c(O)c(O)c1 [compound 17, gallic acid monohydrate, reference compound] | 106 ± 5 | 107 ± 8 | 49 ± 18 |  | > 200 | 0 | -1 | 14 ± 11 | 197 |  | > 500 | ~50 | only little effect |  | 
12 | Oc1cc(O)c2c(c1)O[C@H](c1cc(O)c(O)c(O)c1)[C@@H](O)C2 [compound 3, gallocatechin] | 106 ± 5 | 108 ± 1 | 75 ± 17 |  | ≤ 156 | 0 | 0 | 66 ± 5 | > 200 |  |  |  |  |  | 
13 | O=C(O[C@@H]1Cc2c(O)cc(O)cc2O[C@@H]1c1ccc(O)c(O)c1)c1cc(O)c(O)c(O)c1 [compound 5, epicatechin-3-O-gallate] | 107 ± 3 | 106 ± 4 | 41 ± 2 |  | ≤ 258 | 0 | 1 | 38 ± 2 | 175 |  |  |  |  |  | 
14 | O=C(O[C@@H]1Cc2c(O)cc(O)cc2O[C@@H]1c1cc(O)c(O)c(O)c1)c1cc(O)c(O)c(O)c1 [compound 6, reference compound] | 103 ± 4 | 92 ± 7 | 62 ± 9 |  | ≤ 12 | 1 ± 1 | 87 ± 25 | 60 ± 7 |  | > 200 |  |  |  | no inhibitory effect | 156
15 | O=C1O[C@H]2[C@@H]3OC(=O)c4cc(O)c(O)c(O)c4-c4c(cc(O)c(O)c4O)C(=O)OC[C@H]2O[C@@H](OC(=O)c2cc(O)c(O)c(O)c2)[C@@H]3OC(=O)c2cc(O)c(O)c3c2[C@@H]2C1=CC(=O)[C@](O)(O3)C2(O)O [compound 13, geraniin, reference compound] | 99 ± 1 | 107 ± 2 | 35 ± 3 |  | ≤ 388 | 0 | 1 ± 1 | 25 |  | 162 |  |  |  |  | 
16 | Oc1cc(O)c2c(c1)O[C@H](c1ccc(O)c(O)c1)[C@H](O)[C@H]2c1c(O)cc2c(c1O)C[C@@H](O)[C@@H](c1ccc(O)c(O)c1)O2 [compound 9, epicatechin-(4β→6)-epicatechin] | 100 ± 3 | 84 ± 4 | 57 ± 4 |  | ≤ 163 | 0 | 0 | 63 ± 4 |  | > 200 |  |  |  |  | 
17 | Oc1cc(O)c2c(c1)O[C@H](c1ccc(O)c(O)c1)[C@H](O)[C@H]2c1c(O)cc(O)c2c1O[C@H](c1ccc(O)c(O)c1)[C@H](O)[C@H]2c1c(O)cc(O)c2c1O[C@H](c1ccc(O)c(O)c1)[C@H](O)[C@H]2c1c(O)cc(O)c2c1O[C@H](c1ccc(O)c(O)c1)[C@H](O)C2 [compound 11, epicatechin-(4β→8)-epicatechin-(4β→8)-epicatechin-(4β→8)-epicatechin] | 101 ± 6 | 86 ± 8 | 54 ± 9 |  | ≤ 225 | 0 | 1 | 44 ± 7 |  | > 200 |  |  |  |  | 
